{
  "source": "patent US20260174744A1",
  "about": "“COMPOUNDS, COMPOSITIONS, AND METHODS OF TREATING RNA VIRAL INFECTIONS” (priority 2024, published 2026)",
  "key": {"[1]": {"tested_on": "SARS-CoV-2 variants, Alphacoronavirus, Betacoronavirus, HCV, NoV, IAV, IAB", "assay": "organism not typed", "conditions": "read-out: EC50 against remaining viruses"}, "[2]": {"tested_on": "SARS-CoV-2 variants, Alphacoronavirus, Betacoronavirus, HCV, NoV, IAV, IAB"}},
  "data": [
    {"compound": "Cc1c(-c2ccc(O)cc2)n(Cc2ccc(OCCN3CCCCC3)cc2)c2ccc(O)cc12", "note": "[Pipendoxifene]", "values": [
      {"measurement": "EC50", "setting": "[1]", "result": "3 to 8", "unit": "µM"},
      {"measurement": "potency against six SARS-CoV-2 variants and two coronaviruses", "setting": "[2]", "result": "submicromolar potency"}
    ]}
  ]
}
